# System: not listed separately
# Assay: log P determination by HPLC (EEC Directive 79/831 Annex V.A8, reversed-phase C18)
# Type: physicochemical
# Settings: reversed-phase C18 HPLC column, C18, 43° C., 0.1% aqueous phosphoric acid/acetonitrile gradient
# Description: The log P values given in Table 1 were determined in accordance with EEC Directive 79/831 Annex V.A8 by HPLC (High Performance Liquid Chromatography) using a reversed-phase column (C18). Temperature: 43° C. Mobile phase: 0.1% aqueous phosphoric acid, acetonitrile; linear gradient from 10% acetonitrile to 90% acetonitrile Calibration was carried out using unbranched alkan-2-ones (having 3 to 16 C atoms) with known log P values. (Determination of the log P values by the retention times using linear interpolation between two successive alkanones).
row,Compound,chromatographic logP
1,CCc1ccc(C(C)N2CCSC2=NC#N)cc1 (stereo not drawn) [Example 7],2.09
2,Cc1ccc(C(C)N2CCSC2=NC#N)cc1 (stereo not drawn) [Example 12],3.06
3,CC(c1ccc(Cl)c(Cl)c1)N1CCSC1=NC#N (stereo not drawn) [Example 13],2.84
4,CC(C)c1ccc(C(C)N2CCSC2=NC#N)cc1 (stereo not drawn) [Example 15],3.11
5,N#CN=C1SCCN1C(CF)c1ccc(Cl)cc1 (stereo not drawn) [Example 18],2.41
6,CSc1ccc(Oc2cccc(CCN3CCSC3=NC#N)c2)cc1 [Example 21],3.29
7,CC(c1ccc(Cl)cc1)N1CCN(C)C1=NC#N (stereo not drawn) [Example 23],2.29
8,CC(c1ccc(Cl)cc1)N1CCCN(C)C1=NC#N (stereo not drawn) [Example 28],2.23
9,N#CN=C1SCCN1C1Cc2ccc(Cl)cc2C1 (stereo not drawn) [Example 33],2.68
10,CCC(c1ccc(Cl)cc1)N1CCS/C1=N\C#N (stereo not drawn) [Example 39],2.81
11,CC(c1ccc(Cl)cc1)N1CC[S+]([O-])/C1=N\C#N (stereo not drawn) [Example 40],1.86
12,CC(c1ccc(Cl)cc1)N1CCCN/C1=N\C(N)=S (stereo not drawn) [Example 41],1.48
13,CC(c1ccc(Cl)cc1)N1OCCN(C)/C1=N\C#N (stereo not drawn) [Example 42],2.21
14,CC(c1ccc(Cl)cc1)N1CCCN(C)/C1=N\C(N)=S (stereo not drawn) [Example 43],1.48
15,CSc1ccc(Oc2ccccc2CCN2CCS/C2=N\C#N)cc1 [Example 45],3.33
16,CC(=O)Oc1ccc(CCN2CCS/C2=N\C#N)cc1 [Example 46],1.89
17,CC(c1ccc(Cl)cc1Cl)N1CCCO/C1=N\C#N (stereo not drawn) [Example 47],2.43
18,CC(c1ccc(Cl)c(Cl)c1)N1CCCO/C1=N\C#N (stereo not drawn) [Example 48],2.59
19,CC1CN/C(=N\C#N)N(C(C)c2ccc(Cl)cc2)C1 (stereo not drawn) [Example 49],2.65
20,CC1CN(C)/C(=N\C#N)N(C(C)c2ccc(Cl)cc2)C1 (stereo not drawn) [Example 50],2.52
21,CC(c1ccc(Cl)cc1)N1CSCC/C1=N\C#N (stereo not drawn) [Example 51],2.63
22,CC(c1ccc(Cl)cc1)N1COCC/C1=N\C#N (stereo not drawn) [Example 52],2.28

# System: Meloidogyne incognita larvae
# Assay: Meloidogyne test/aqueous system
# Type: in vivo
# Settings: 40 ppm; nematicidal action by activity of the larvae; 96-well plate; 100% = no activity found
# Description: Meloidogyne Test/Aqueous System To prepare a suitable preparation of active compound, 1 part by weight of active compound is mixed with 1 000 parts by weight of methanol, and per preparation to be tested, 10 μl are added to a well of a 96-well plate (from Greiner), where the solvent evaporates. In the 96-well plates, the wells containing the active compound are filled with lecithin solution (0.01%) and Meloidogyne incognita larvae suspension. The concentration of active compound is now 40 ppm. After the time indicated in the table, the nematicidal action is determined in % by the activity of the larvae. 100% means that no activity has been found; 0% means that the activity in the treated wells corresponds to that of the untreated control.
row,Compound,Effect in % after 4 days [%]
1,CC(c1ccc(Cl)cc1)N1CCSC1=NC#N (stereo not drawn) [Example 14],100

# System: Meloidogyne incognita egg/larvae
# Assay: Meloidogyne test (sand, lettuce, gall formation)
# Type: in vivo
# Settings: 20 ppm; nematicidal action by gall formation on lettuce roots; 100% = no galls
# Description: To prepare a suitable preparation of active compound, 1 part by weight of active compound is mixed with 30 parts by weight of dimethylformamide and 1 part by weight of emulsifier (alllylaryl polyglycol ether), and the concentrate is diluted with water to the desired concentration.
# Containers are filled with sand, solution of active compound, Meloidogyne incognita egg/larvae suspension and lettuce seeds. The lettuce seeds germinate and the plants develop. On the roots, galls are formed.
# After the period of time indicated in the table, the nematicidal action is determined in % using gall formation as a measure. 100% means that no galls were found; 0% means that the number of galls on the treated plants corresponds to that of the untreated control.
# In this test, for example, the following compounds of the Preparation Examples show good activity: […]
row,Compound,Effect in % after 4 days [%]
1,"CC(c1ccc(Cl)cc1)N1CCNC1=NC#N (stereo not drawn) [Example 1, 1-[1-(4-Chlorophenyl)ethyl]-2-imidazolidinylidenecyanamide]",98
2,CC(c1ccccc1Cl)N1CCSC1=NC#N (stereo not drawn) [Example 3],100
3,CCC(c1ccccc1Cl)N1CCSC1=NC#N (stereo not drawn) [Example 4],100
4,CC(c1ccc(Cl)cc1)N1CCSC1=NC#N (stereo not drawn) [Example 14],100
5,CC(c1ccc(Cl)cc1)N1CCCC1=NC#N (stereo not drawn) [Example 22],100
6,CC(c1ccc(Cl)cc1)N1CCN(C)C1=NC#N (stereo not drawn) [Example 23],90
7,CC(c1ccc(Cl)cc1)N1CCCN(C)C1=NC#N (stereo not drawn) [Example 28],95
